# Results taken from PubChem BioAssay AID1845194 (Molecular Pharmacology Branch, DTP, NCI, 2023).
# pIC50: −log10 of the molar value. Several values for one entry are separate records, joined by “and”; a condition that tells them apart may be missing. Identical values can stand only once.
# System: 287954-098-R-J1 tumor spheroid viability
# Test: Anticancer human tumor 287954-098-R-J1 patient-derived Ewing sarcoma cell line growth inhibition
# Details: spheroids with HUVEC and MSC; for viability, T/C: stronger effect = lower value
# In short: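 Complex spheroids of malignant cells with endothelial cells and mesenchymal stem cells; agents alone or combined, from near clinical Cmax (or 10 microM if unknown) down in half-log steps, 0.25% DMSO final.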
# [1] = curve of first compound, second compound 1 µM
# [2] = curve of first compound, second compound 3.16 µM
# [3] = curve of first compound, second compound 10 µM
# [4] = curve of first compound, second compound 31.6 µM
# [5] = curve of first compound, second compound 100 µM
# 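Further: spheroids exposed to compound for 7 days before viability readout.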
# 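Wherever viability, T/C is given: luminescent signal taken as surrogate of viable cell content; 100% = DMSO vehicle control viability and lower means growth inhibition.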
smiles,measurement,setting,value
Cc1cc(C)c(CNC(=O)c2cc(-c3ccc(CN4CCOCC4)cc3)cc3c2cnn3C2CCCC2)c(=O)[nH]1 + Cn1nnc2c(C(N)=O)ncn2c1=O,pIC50,[1],< 5.00
same,pIC50,[2],< 5.00
same,pIC50,[3],< 5.00
same,pIC50,[4],< 5.00
same,pIC50,[5],< 5.00
same,"viability, T/C","second compound 1 µM, first compound 0.0316 µM",104%
same,"viability, T/C","second compound 1 µM, first compound 0.1 µM",100%
same,"viability, T/C","second compound 1 µM, first compound 0.316 µM",100%
same,"viability, T/C","second compound 1 µM, first compound 1 µM",103%
same,"viability, T/C","second compound 1 µM, first compound 3.16 µM",105%
same,"viability, T/C","second compound 1 µM, first compound 10 µM",115%
same,"viability, T/C","second compound 3.16 µM, first compound 0.0316 µM",105%
same,"viability, T/C","second compound 3.16 µM, first compound 0.1 µM",107%
same,"viability, T/C","second compound 3.16 µM, first compound 0.316 µM",100%
same,"viability, T/C","second compound 3.16 µM, first compound 1 µM",108%
same,"viability, T/C","second compound 3.16 µM, first compound 3.16 µM",107%
same,"viability, T/C","second compound 3.16 µM, first compound 10 µM",108%
same,"viability, T/C","second compound 10 µM, first compound 0.0316 µM",110%
same,"viability, T/C","second compound 10 µM, first compound 0.1 µM",108%
same,"viability, T/C","second compound 10 µM, first compound 0.316 µM",107%
same,"viability, T/C","second compound 10 µM, first compound 1 µM",106%
same,"viability, T/C","second compound 10 µM, first compound 3.16 µM",99.3%
same,"viability, T/C","second compound 10 µM, first compound 10 µM",111%
same,"viability, T/C","second compound 31.6 µM, first compound 0.0316 µM",108%
same,"viability, T/C","second compound 31.6 µM, first compound 0.1 µM",117%
same,"viability, T/C","second compound 31.6 µM, first compound 0.316 µM",109%
same,"viability, T/C","second compound 31.6 µM, first compound 1 µM",105%
same,"viability, T/C","second compound 31.6 µM, first compound 3.16 µM",108%
same,"viability, T/C","second compound 31.6 µM, first compound 10 µM",105%
same,"viability, T/C","second compound 100 µM, first compound 0.0316 µM",108%
same,"viability, T/C","second compound 100 µM, first compound 0.1 µM",113%
same,"viability, T/C","second compound 100 µM, first compound 0.316 µM",111%
same,"viability, T/C","second compound 100 µM, first compound 1 µM",107%
same,"viability, T/C","second compound 100 µM, first compound 3.16 µM",96.2%
same,"viability, T/C","second compound 100 µM, first compound 10 µM",104%
CC(C)n1c(=O)n(C)c2cnc3cc(F)c(-c4ccc(OCCCN5CCCCC5)nc4)cc3c21,"viability, T/C",compound 0.0316 µM,110% (2×) and 102%
same,"viability, T/C",compound 0.1 µM,102% (2×) and 101%
same,"viability, T/C",compound 0.316 µM,110% and 98.5% and 105%
same,"viability, T/C",compound 1 µM,102% and 110% and 112%
same,"viability, T/C",compound 3.16 µM,108% and 107% (2×)
same,"viability, T/C",compound 10 µM,11% and 86.6% and 25.5%
same,pIC50,curve of compound,5.20 and < 5.00 and 5.15
CNCc1ccc(-c2cc(-c3nc(-c4ccc(S(=O)(=O)C(C)C)cc4)cnc3N)on2)cc1 + Cn1nnc2c(C(N)=O)ncn2c1=O,pIC50,[1],6.26
same,pIC50,[2],6.26
same,pIC50,[3],6.26
same,pIC50,[4],6.40
same,pIC50,[5],6.77
same,"viability, T/C","second compound 1 µM, first compound 0.00949 µM",98.6%
same,"viability, T/C","second compound 1 µM, first compound 0.03 µM",103%
same,"viability, T/C","second compound 1 µM, first compound 0.0949 µM",110%
same,"viability, T/C","second compound 1 µM, first compound 0.3 µM",103%
same,"viability, T/C","second compound 1 µM, first compound 0.949 µM",0.19%
same,"viability, T/C","second compound 1 µM, first compound 3 µM",0.11%
same,"viability, T/C","second compound 3.16 µM, first compound 0.00949 µM",105%
same,"viability, T/C","second compound 3.16 µM, first compound 0.03 µM",106%
same,"viability, T/C","second compound 3.16 µM, first compound 0.0949 µM",113%
same,"viability, T/C","second compound 3.16 µM, first compound 0.3 µM",107%
same,"viability, T/C","second compound 3.16 µM, first compound 0.949 µM",0.19%
same,"viability, T/C","second compound 3.16 µM, first compound 3 µM",0.1%
same,"viability, T/C","second compound 10 µM, first compound 0.00949 µM",102%
same,"viability, T/C","second compound 10 µM, first compound 0.03 µM",110%
same,"viability, T/C","second compound 10 µM, first compound 0.0949 µM",106%
same,"viability, T/C","second compound 10 µM, first compound 0.3 µM",105%
same,"viability, T/C","second compound 10 µM, first compound 0.949 µM",0.16%
same,"viability, T/C","second compound 10 µM, first compound 3 µM",0.09%
same,"viability, T/C","second compound 31.6 µM, first compound 0.00949 µM",104%
same,"viability, T/C","second compound 31.6 µM, first compound 0.03 µM",106%
same,"viability, T/C","second compound 31.6 µM, first compound 0.0949 µM",121%
same,"viability, T/C","second compound 31.6 µM, first compound 0.3 µM",66.3%
same,"viability, T/C","second compound 31.6 µM, first compound 0.949 µM",0.13%
same,"viability, T/C","second compound 31.6 µM, first compound 3 µM",0.1%
same,"viability, T/C","second compound 100 µM, first compound 0.00949 µM",97.5%
same,"viability, T/C","second compound 100 µM, first compound 0.03 µM",100%
same,"viability, T/C","second compound 100 µM, first compound 0.0949 µM",103%
same,"viability, T/C","second compound 100 µM, first compound 0.3 µM",1.71%
same,"viability, T/C","second compound 100 µM, first compound 0.949 µM",0.14%
same,"viability, T/C","second compound 100 µM, first compound 3 µM",0.16%
